These results are taken from patent US20260008783A1, “MODULATORS OF FSHR AND USES THEREOF” (Celmatix Inc., priority 2022, published 2026).

The target in this assay is T1, Follicle Stimulating Hormone Receptor (FSHR) (Homo sapiens, UniProt P23945).
T1 construct: HA (N); expressed in transfected cells; host or cells: CHO-K1, transient transfection, pHM6 vector (CMV promoter)
T1 sequence (P23945 18-695): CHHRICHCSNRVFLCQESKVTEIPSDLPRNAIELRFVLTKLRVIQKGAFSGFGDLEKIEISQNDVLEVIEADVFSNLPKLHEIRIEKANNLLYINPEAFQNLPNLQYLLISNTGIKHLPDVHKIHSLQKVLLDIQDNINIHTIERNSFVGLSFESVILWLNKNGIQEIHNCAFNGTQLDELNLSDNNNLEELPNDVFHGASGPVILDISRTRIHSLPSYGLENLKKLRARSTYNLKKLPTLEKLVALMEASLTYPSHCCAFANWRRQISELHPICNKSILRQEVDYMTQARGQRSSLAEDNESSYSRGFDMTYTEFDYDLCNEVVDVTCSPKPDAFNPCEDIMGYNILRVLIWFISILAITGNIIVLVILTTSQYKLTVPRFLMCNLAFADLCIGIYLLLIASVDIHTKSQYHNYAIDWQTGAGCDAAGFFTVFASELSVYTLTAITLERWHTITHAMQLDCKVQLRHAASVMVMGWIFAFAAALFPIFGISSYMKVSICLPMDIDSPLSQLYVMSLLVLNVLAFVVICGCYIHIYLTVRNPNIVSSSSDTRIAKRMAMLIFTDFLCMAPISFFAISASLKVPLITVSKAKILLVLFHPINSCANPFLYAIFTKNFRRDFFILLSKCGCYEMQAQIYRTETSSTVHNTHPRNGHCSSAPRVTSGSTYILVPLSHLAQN
Briefly: HTRF cAMP agonist assay, FSHR, transiently transfected CHO-K1 cells. To be noted: CHO-K1 cells transiently expressing human FSHR, read-out: IC50 FSHR LANCE CAMP. Type of assay: cell-based. For orientation: Time-resolved FRET reads energy transfer from a long-lived donor to a nearby acceptor.
One may read the IC50 as the point on the concentration scale where inhibition reaches its midpoint. Regarding `COc1cc2c(cc1-c1ccn(C)n1)-c1c(c(C(=O)N(C)C(C)(C)C)nn1-c1cc(Cl)cc(Cl)c1)CC2` [Compound 6-04, N-tert-butyl-1-(3,5-dichlorophenyl)-7-methoxy-N-methyl-8-(1-methylpyrazol-3-yl)-4,5-dihydrobenzo[g]indazole-3-carboxamide], the IC50 is 180 nM.
As for `COc1cc2c(cc1-c1cncc(C(N)=O)c1)-c1c(c(C(=O)N3CCOCC3(C)C)nn1-c1cc(Cl)cc(Cl)c1)OC2` [Compound 2-01, 5-[1-(3,5-dichlorophenyl)-3-(3,3-dimethylmorpholine-4-carbonyl)-7-methoxy-5H-isochromeno[4,3-c]pyrazol-8-yl]pyridine-3-carboxamide], the figure is 3.44 nM; as for `COc1cc2c(cc1-c1cncc(C(N)=O)c1)-c1c(c(C(=O)N(C)C(C)(C)C)nn1-c1cc(Cl)cc(Cl)c1)OC2` [Compound 2-02], 1.98 nM.
Take `COc1cc2c(cc1-c1cncc(C(N)=O)c1)-c1c(c(C(=O)N(C)C3CC3)nn1-c1cc(Cl)cc(Cl)c1)CC2` [Compound 8-39]: the half-maximal inhibitory concentration (IC50) amounted to 15.5 nM.
As for `COc1cc2c(cc1-c1cncc(C(N)=O)c1)-c1c(c(C(=O)N(C)C(C)(C)C)nn1-c1cc(Cl)cc(Cl)c1)SC2` [Compound 3-02, N-tert-butyl-8-(5-carbamoyl-3-pyridyl)-1-(3,5-dichlorophenyl)-7-methoxy-N-methyl-5H-isothiochromeno[4,3-c]pyrazole-3-carboxamide], the figure is 3.92 nM; as for `COc1cc2c(cc1-c1cncc(C(N)=O)c1)-c1c(c(C(=O)N(C)C(C)(C)CO)nn1-c1cc(Cl)cc(Cl)c1)CC2` [Compound 8-10], 991 nM; as for `COc1cc2oc3c(C(=O)N(C)C(C)(C)C)nn(-c4ccsc4)c3c2cc1-c1cncc(C(N)=O)c1` [Compound 4-04], 586 nM.
As for `COc1cc2c(cc1-c1cncc(C(N)=O)c1)-c1c(c(C(=O)N3[C@H](C)CNC[C@@H]3C)nn1-c1cc(Cl)cc(Cl)c1)OC2` [Compound 12-02, 5-[1-(3,5-dichlorophenyl)-3-[(2R,6S)-2,6-dimethylpiperazine-1-carbonyl]-7-methoxy-5H-isochromeno[4,3-c]pyrazol-8-yl]pyridine-3-carboxamide], the IC50 is 5.07 nM.
As to `COc1cc2oc3c(C(=O)N4CCOCC4(C)C)nn(-c4ccsc4)c3c2cc1-c1cncc(C#N)c1` [Compound 4-03, 5-[3-(3,3-dimethylmorpholine-4-carbonyl)-6-methoxy-1-(3-thienyl)benzofuro[3,2-c]pyrazol-7-yl]pyridine-3-carbonitrile], the IC50 is 579 nM.
For `COc1cc2c(cc1-c1cccnc1)-c1c(c(C(=O)N3CCOCC3(C)C)nn1-c1cc(Cl)cc(Cl)c1)CC2` [Compound 9-07], the IC50 was found to be 5.98 nM.
Consider `COc1cc2c(cc1-c1cncc(C(N)=O)c1)-c1c(c(C(=O)N3CC4CCC3CN4C)nn1-c1cc(Cl)cc(Cl)c1)CC2` (stereo not drawn) [Compound 8-17], for which the IC50 stood at 115 nM.
In the case of `COc1cc2c(cc1-c1cncc(C(N)=O)c1)-c1c(c(C(=O)N3C4CCC3CN(C)C4)nn1-c1cc(Cl)cc(Cl)c1)CC2` [Compound 8-15], the concentration for half-maximal inhibition (IC50) worked out at 33.2 nM.
Turning to `COc1cc(C(N)=O)cc(-c2cc3c(cc2OC)CSc2c(C(=O)N(C)C(C)(C)C)nn(-c4cc(Cl)cc(Cl)c4)c2-3)n1` [Compound 11-03, N-tert-butyl-8-(4-carbamoyl-6-methoxy-2-pyridyl)-1-(3,5-dichlorophenyl)-7-methoxy-N-methyl-5H-isothiochromeno[4,3-c]pyrazole-3-carboxamide], the IC50 worked out at 75 nM.
Regarding `COc1cc2ccc3c(C(=O)N(C)C(C)(C)C)nn(-c4cc(Cl)cc(Cl)c4)c3c2cc1-c1ccn(C)n1` [Compound 6-08, N-tert-butyl-1-(3,5-dichlorophenyl)-7-methoxy-N-methyl-8-(1-methylpyrazol-3-yl)benzo[g]indazole-3-carboxamide], the IC50 was found to be 78.4 nM.
For `COc1cc2c(cc1-c1cccnc1)-c1c(c(C(=O)N3CCNC(=O)C3(C)C)nn1-c1cc(Cl)cc(Cl)c1)CC2` [Compound 15-03, 4-[1-(3,5-dichlorophenyl)-7-methoxy-8-(3-pyridyl)-4,5-dihydrobenzo[g]indazole-3-carbonyl]-3,3-dimethyl-piperazin-2-one], the IC50 stood at 31.1 nM.
For the molecule `COc1cc2c(cc1-c1cncc(C(N)=O)c1)-c1c(c(C(=O)N3CCC4CNCCC43)nn1-c1cc(Cl)cc(Cl)c1)CC2` (stereo not drawn) [Compound 8-23, 5-[3-(2,3,3a,4,5,6,7,7a-octahydropyrrolo[3,2-c]pyridine-1-carbonyl)-1-(3,5-dichlorophenyl)-7-methoxy-4,5-dihydrobenzo[g]indazol-8-yl]pyridine-3-carboxamide], the IC50 is 457 nM.
As for `COc1cc2c(cc1-c1cncc(C(N)=O)c1)-c1c(c(C(=O)N3CC4CC3CN4C(=O)OC(C)(C)C)nn1-c1cc(Cl)cc(Cl)c1)CC2` (stereo not drawn) [Compound 8-33A], the IC50 was 105 nM.
Turning to `COc1cc2c(cc1Br)-c1c(c(C(=O)N(C)C(C)(C)C)nn1-c1cc(Cl)cc(Cl)c1)CC2` [Compound 6-02A, 8-bromo-N-tert-butyl-1-(3,5-dichlorophenyl)-7-methoxy-N-methyl-4,5-dihydrobenzo[g]indazole-3-carboxamide], the 50% inhibitory concentration (IC50) was determined as 861 nM.
As for `COc1cc2c(cc1-c1cncc(C(N)=O)c1)-c1c(c(C(=O)N3C4CNCC3C4)nn1-c1cc(Cl)cc(Cl)c1)CC2` [Compound 8-16B], the figure is 769 nM.
On to `COc1cc2c(cc1-c1cncc(C(N)=O)c1)-c1c(c(C(=O)N3CCN(CC(F)(F)F)CC3(C)C)nn1-c1cc(Cl)cc(Cl)c1)CC2` [Compound 8-58, 5-(1-(3,5-dichlorophenyl)-3-(2,2-dimethyl-4-(2,2,2-trifluoroethyl)piperazine-1-carbonyl)-7-methoxy-4,5-dihydro-1H-benzo[g]indazol-8-yl)nicotinamide], for which the IC50 was found to be 102 nM.
As to `COc1cc2c(cc1-c1cncc(C(N)=O)c1)-c1c(c(C(=O)N3CCN(CCO)C(=O)C3(C)C)nn1-c1cc(Cl)cc(Cl)c1)CC2` [Compound 8-70], the IC50 is 140 nM.
On to `COc1cc2c(cc1-c1cncc(C(N)=O)c1)-c1c(c(C(=O)N3CCOCC3(C)C)nn1-c1cc(Cl)cc(Cl)c1)[S+]([O-])C2` (stereo not drawn) [Compound 3-05], for which the IC50 is 55.7 nM.
For the molecule `COc1cc2c(cc1-c1cncc(C(N)=O)c1)-c1c(c(C(=O)N3CCOCC3(C)C)nn1-c1cncnc1)CC2` [Compound 10-09], the IC50 was 165 nM.
On to `CC1(C)C(=O)NCCN1C(=O)c1nn(-c2ccccn2)c2c1CCc1ccc(-c3cncc(C(N)=O)c3)cc1-2` [Compound 8-75], for which the IC50 worked out at 27400 nM.
Turning to `COc1cc2c(cc1-c1cncc(C(N)=O)c1)-c1c(c(C(=O)N3CCOCC3(C)C)nn1-c1ccsc1)CC2` [Compound 9-21, 5-[3-(3,3-dimethylmorpholine-4-carbonyl)-7-methoxy-1-(3-thienyl)-4,5-dihydrobenzo[g]indazol-8-yl]pyridine-3-carboxamide], the IC50 came out at 1.29 nM.
As to `COc1cc2oc3c(C(=O)N4CCOCC4(C)C)n(-c4ccsc4)nc3c2cc1-c1cncc(C(N)=O)c1` [Compound 4-03A], the IC50 came out at 1860 nM.
For `COc1cc2c(cc1-c1cncc(C(N)=O)c1)-c1c(c(C(=O)N3CCCC(=O)C3)nn1-c1cc(Cl)cc(Cl)c1)CC2` [Compound 8-83], the IC50 is 38.9 nM.
